Data on 9 compounds can be found in patent US20210395256A1, “TYROSINE KINASE INHIBITORS, COMPOSITIONS AND METHODS THERE OF” (Betta Pharmaceuticals Co., Ltd., priority 2018, published 2021).

Usually microsomal CLint stands for the rate of metabolic loss divided by the concentration. Low values mean greater metabolic stability, high ones faster metabolism. As a reminder, the IC50 is the concentration that gives 50% inhibition.

Series [1] is described as follows: Liver microsomes metabolic stability assay, rat. The conditions noted are these: male, rat liver microsomes 0.5 mg/mL, 37° C.; for half-life at 2 μM: read-out: t1/2 Rat. Type of series: in vitro ADME. In outline: (§1)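 Pooled human, male rat or male mouse liver microsomes (0.5 mg/mL final) incubated at 37° C with 2 μM compound, with or without 1 mM NADPH. Samples at 0-60 min quenched in cold acetonitrile and analyzed by LC-MS/MS in duplicate. t1/2 derived from ln(% remaining) vs time slope, converted to CLint (μL/min/mg).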
(In general: Liver microsomes are vesicles of endoplasmic reticulum, rich in cytochrome P450 enzymes.)

A short description of series [2]: Liver microsomes metabolic stability assay, human. The series is classed as in vitro ADME. Conditions: human liver microsomes 0.5 mg/mL, 37° C.; for half-life at 2 μM: read-out: t1/2 Human. In outline:
as §1

A short description of series [3]: Liver microsomes metabolic stability assay, mouse. Conditions: male, mouse liver microsomes 0.5 mg/mL, 37° C.; for half-life at 2 μM: read-out: t1/2 Mouse. The series is classed as in vitro ADME. In outline:
as §1

The target in another series is TrkA kinase (Homo sapiens, UniProt P04629). Description: TrkA kinase assay (mobility shift assay). The series is classed as biochemical. The conditions noted are these: read-out: Trk A Kinase IC50. In outline: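 Caliper mobility-shift readout of FAM-labelled peptide conversion by TrkA in 50 mM HEPES pH 7.5, 0.0015% Brij-35, with ATP; enzyme preincubated 10 min with compound (10-point dilution), reaction at 28 °C, EDTA stop. Inhibition relative to DMSO and no-enzyme controls; IC50 by four-parameter fit.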
Sequence of TrkA kinase (P04629 33-796): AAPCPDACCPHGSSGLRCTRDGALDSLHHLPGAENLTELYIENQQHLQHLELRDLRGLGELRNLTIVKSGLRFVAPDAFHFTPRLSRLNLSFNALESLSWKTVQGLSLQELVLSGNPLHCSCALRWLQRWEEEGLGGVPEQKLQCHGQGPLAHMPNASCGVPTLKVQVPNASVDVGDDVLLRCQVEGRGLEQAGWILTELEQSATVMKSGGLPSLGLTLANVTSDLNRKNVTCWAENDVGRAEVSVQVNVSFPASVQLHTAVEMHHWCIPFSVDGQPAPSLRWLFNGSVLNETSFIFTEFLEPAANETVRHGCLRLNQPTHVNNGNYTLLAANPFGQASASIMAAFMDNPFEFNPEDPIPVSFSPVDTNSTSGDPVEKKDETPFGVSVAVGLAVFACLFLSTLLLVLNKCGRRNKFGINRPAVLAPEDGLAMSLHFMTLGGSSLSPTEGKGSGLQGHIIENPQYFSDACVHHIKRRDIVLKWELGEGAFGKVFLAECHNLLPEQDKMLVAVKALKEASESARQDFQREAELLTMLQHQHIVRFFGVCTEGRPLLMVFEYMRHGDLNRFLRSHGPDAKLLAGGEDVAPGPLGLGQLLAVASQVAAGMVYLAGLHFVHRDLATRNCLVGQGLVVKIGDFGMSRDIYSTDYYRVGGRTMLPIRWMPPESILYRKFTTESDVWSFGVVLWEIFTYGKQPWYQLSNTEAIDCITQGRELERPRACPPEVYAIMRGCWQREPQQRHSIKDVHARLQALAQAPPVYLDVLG

Where two headings read alike, the source gives them in different places.

For `Cc1nnc(-c2cnn3ccc(N4CCCC4c4cc(F)ccc4F)nc23)[nH]1` (centres unmarked) [Comparative compound A, 5-[2-(2,5-Difluorophenyl)pyrrolidin-1-yl]-3-(5-methyl-1H-1,2,4-triazol-3-yl)pyrazolo[1,5-a]pyrimidine, reference compound], the values for the microsomal CLint at 2 μM in series [1], in series [2] and in series [3] were 78.5 µL/min/mg, 108 µL/min/mg and 214 µL/min/mg, respectively. The half-life at 2 μM in series [1] worked out at 17.7 min; in series [2], 12.8 min; in series [3] it was 6.47 min.
`C[C@H](O)c1nnc(-c2cnn3ccc(N4CCC[C@@H]4c4cc(F)ccc4F)nc23)[nH]1` [Compound 4, (S)-1-(5-(5-((R)-2-(2,5-difluorophenyl)pyrrolidin-1-yl)pyrazolo[1,5-a]pyrimidin-3-yl)-4H-1,2,4-triazol-3-yl)ethan-1-ol]: the microsomal CLint at 2 μM in series [1] amounted to 29.3 µL/min/mg; in series [2], 20.4 µL/min/mg; in series [3] it was 96.4 µL/min/mg. Besides, the half-life at 2 μM in series [1] came to 47.3 min; in series [2], 67.9 min; in series [3], 14.4 min. In addition, the IC50 at TrkA kinase (numeric values) was 1.37 nM.
Take `CC(C)(O)c1nnc(-c2cnn3ccc(N4CCC[C@@H]4c4cc(F)ccc4F)nc23)[nH]1` [Compound 7, (R)-2-(5-(5-(2-(2,5-difluorophenyl)pyrrolidin-1-yl)pyrazolo[1,5-a]pyrimidin-3-yl)-4H-1,2,4-triazol-3-yl)propan-2-ol]: the microsomal CLint at 2 μM in series [1] was determined as 25.3 µL/min/mg; in series [2] it was 11.1 µL/min/mg; in series [3] it was 19.4 µL/min/mg. The values for the half-life at 2 μM in series [1], in series [2] and in series [3] were 54.9 min, 124 min and 71.5 min, respectively. Also, on TrkA kinase (numeric values), the 50% inhibitory concentration (IC50) was determined as 0.68 nM.
`C[C@H](N)c1nnc(-c2cnn3ccc(N4CCC[C@@H]4c4cc(F)ccc4F)nc23)[nH]1` [Compound 11, (S)-1-(5-(5-((R)-2-(2,5-difluorophenyl)pyrrolidin-1-yl)pyrazolo[1,5-a]pyrimidin-3-yl)-4H-1,2,4-triazol-3-yl)ethan-1-amine]: the microsomal CLint at 2 μM in series [1] came to 5.23 µL/min/mg; in series [2], 4.27 µL/min/mg; in series [3], 61.9 µL/min/mg. Moreover, the half-maximal inhibitory concentration (IC50) on TrkA kinase (class symbols) was no more than 10 nM.
Take `OC1(c2nnc(-c3cnn4ccc(N5CCC[C@@H]5c5cc(F)ccc5F)nc34)[nH]2)CCC1` [Compound 23, (R)-1-(5-(5-(2-(2,5-difluorophenyl)pyrrolidin-1-yl)pyrazolo[1,5-a]pyrimidin-3-yl)-4H-1,2,4-triazol-3-yl)cyclobutan-1-ol]: the microsomal CLint at 2 μM in series [1] was determined as 50 µL/min/mg; in series [2], 9.36 µL/min/mg; in series [3], 48.6 µL/min/mg. Further, the half-life at 2 μM in series [1] was 27.7 min; in series [2], 148 min; in series [3] it was 28.5 min. Also, the half-inhibitory concentration (IC50) at TrkA kinase (numeric values) stood at 2.3 nM.
As for `CC(C)(O)Cc1nnc(-c2cnn3ccc(N4CCC[C@@H]4c4cc(F)ccc4F)nc23)[nH]1` [Compound 30, (R)-1-(5-(5-(2-(2,5-difluorophenyl)pyrrolidin-1-yl)pyrazolo[1,5-a]pyrimidin-3-yl)-4H-1,2,4-triazol-3-yl)-2-methylpropan-2-ol], the intrinsic metabolic clearance (microsomal CLint) at 2 μM came out at 69.6 µL/min/mg in series [1], 16.8 µL/min/mg in series [2] and 35.6 µL/min/mg in series [3]. The half-life at 2 μM was 19.9 min in series [1], 82.7 min in series [2] and 38.9 min in series [3]. On TrkA kinase (numeric values), the IC50 was determined as 4.9 nM.
As for `OC1CC(c2nnc(-c3cnn4ccc(N5CCC[C@@H]5c5cc(F)ccc5F)nc34)[nH]2)C1` (stereo partly drawn) [Compound 31, (R)-3-(5-(5-(2-(2,5-difluorophenyl)pyrrolidin-1-yl)pyrazolo[1,5-a]pyrimidin-3-yl)-4H-1,2,4-triazol-3-yl)cyclobutan-1-ol], the microsomal CLint at 2 μM was 69.1 µL/min/mg in series [1], 16.4 µL/min/mg in series [2] and 37 µL/min/mg in series [3]. In addition, the half-life at 2 μM in series [1] was 20.1 min; in series [2] it was 84.6 min; in series [3], 37.4 min. Moreover, the IC50 on TrkA kinase (numeric values) was determined as 2.3 nM.
As for `C[C@@H](CO)c1nnc(-c2cnn3ccc(N4CCC[C@@H]4c4cc(F)ccc4F)nc23)[nH]1` [Compound 39, (R)-2-(5-(5-((R)-2-(2,5-difluorophenyl)pyrrolidin-1-yl)pyrazolo[1,5-a]pyrimidin-3-yl)-4H-1,2,4-triazol-3-yl)propan-1-ol], the microsomal CLint at 2 μM in series [1] was 80.2 µL/min/mg; in series [2], 17.2 µL/min/mg; in series [3] it was 41.4 µL/min/mg. Further, the figures for the half-life at 2 μM in series [1], in series [2] and in series [3] were 17.3 min, 80.6 min and 33.5 min, respectively. For the same compound, the IC50 at TrkA kinase (numeric values) came out at 1.26 nM.
Turning to `OC(c1nnc(-c2cnn3ccc(N4CCC[C@@H]4c4cc(F)ccc4F)nc23)[nH]1)C(F)(F)F` (stereo partly drawn) [Compound 47, 1-(5-(5-((R)-2-(2,5-difluorophenyl)pyrrolidin-1-yl)pyrazolo[1,5-a]pyrimidin-3-yl)-4H-1,2,4-triazol-3-yl)-2,2,2-trifluoroethan-1-ol], the IC50 at TrkA kinase (numeric values) is 3.23 nM.
